For two molecules, remaining activity results are on record in publication doi:10.1101/2024.08.13.607785v1 (biorxiv, 2024).

Read-outs that look alike come from different tables or passages of the source.

What all share (assay): biochemical
Common to all, as to set-up: species or system human cell line lysate

For assay [1], the target named is Isoform 3 of Citron Rho-interacting kinase ; CIT ; O14578-3 (Homo sapiens, UniProt O14578).
In assay [2] the target is Isoform IB of Tyrosine-protein kinase ABL1 ; ABL1 ; P00519-2 (Homo sapiens, UniProt P00519).
For assay [3], the target named is Mitogen-activated protein kinase kinase kinase kinase 3 ; MAP4K3 ; Q8IVH8 (Homo sapiens, UniProt Q8IVH8).
Assay [4] addresses Protein kinase C iota type ; PRKCI ; P41743 (Homo sapiens, UniProt P41743).
The target of assay [5] is Isoform 3 of Casein kinase I isoform alpha ; CSNK1A1 ; P48729-3 (Homo sapiens, UniProt P48729).
In assay [6] the target is RAC-alpha serine/threonine-protein kinase ; AKT1 ; P31749 (Homo sapiens, UniProt P31749).
Assay [7] concerns the target Ribosomal protein S6 kinase alpha-5 ; RPS6KA5 ; O75582 (Homo sapiens, UniProt O75582).
For assay [8], the target named is Serine/threonine-protein kinase 17B ; STK17B ; O94768 (Homo sapiens, UniProt O94768).
Assay [9] deals with Isoform 1A of Mitogen-activated protein kinase kinase kinase 7 ; MAP3K7 ; O43318-2 (Homo sapiens, UniProt O43318).
Assay [10] concerns the target Serine/threonine-protein kinase 3 ; STK3 ; Q13188 (Homo sapiens, UniProt Q13188).
Assay [11] has as its target Phosphatidylinositol 4,5-bisphosphate 3-kinase catalytic subunit delta ; PIK3CD ; O00329 (Homo sapiens, UniProt O00329).
Assay [12] has as its target Interferon-induced, double-stranded RNA-activated protein kinase ; EIF2AK2 ; P19525 (Homo sapiens, UniProt P19525).
Assay [13] deals with Isoform 3 of Mitogen-activated protein kinase 8 ; MAPK8 ; P45983-3 (Homo sapiens, UniProt P45983).
The target in assay [14] is Phosphatidylinositol 4-phosphate 3-kinase C2 domain-containing subunit ; PIK3C2B ; O00750 (Homo sapiens, UniProt O00750).
In assay [15] the target is Isoform 4 of Casein kinase I isoform gamma-3 ; CSNK1G3 ; Q9Y6M4-4 (Homo sapiens, UniProt Q9Y6M4).
Assay [16] addresses Serine/threonine-protein kinase N2 ; PKN2 ; Q16513 (Homo sapiens, UniProt Q16513).
Assay [17] deals with Mitogen-activated protein kinase kinase kinase 9 ; MAP3K9 ; P80192 (Homo sapiens, UniProt P80192).
In assay [18] the target is Phosphatidylinositol 5-phosphate 4-kinase type-2 gamma ; PIP4K2C ; Q8TBX8 (Homo sapiens, UniProt Q8TBX8).
Assay [19] has as its target Ribosomal protein S6 kinase beta-1 ; RPS6KB1 ; P23443 (Homo sapiens, UniProt P23443).
Assay [20] has as its target Serine/threonine-protein kinase PAK 4 ; PAK4 ; O96013 (Homo sapiens, UniProt O96013).
In assay [21] the target is 5'-AMP-activated protein kinase catalytic subunit alpha-2 ; PRKAA2 ; P54646 (Homo sapiens, UniProt P54646).
Assay [22] concerns the target STE20-like serine/threonine-protein kinase ; SLK ; Q9H2G2 (Homo sapiens, UniProt Q9H2G2).
[23] abbreviates: read-out: BAY-1143572 (10 µM) / %Intensity relative to DMSO.
The mark [24] stands for this setting: read-out: BAY-1251152 (10 µM) / %Intensity relative to DMSO.

Chain of Phosphatidylinositol 4-phosphate 3-kinase C2 domain-containing subunit ; PIK3C2B ; O00750 (O00750 whole entry, the tested form may be a part, canonical isoform, one chain of several): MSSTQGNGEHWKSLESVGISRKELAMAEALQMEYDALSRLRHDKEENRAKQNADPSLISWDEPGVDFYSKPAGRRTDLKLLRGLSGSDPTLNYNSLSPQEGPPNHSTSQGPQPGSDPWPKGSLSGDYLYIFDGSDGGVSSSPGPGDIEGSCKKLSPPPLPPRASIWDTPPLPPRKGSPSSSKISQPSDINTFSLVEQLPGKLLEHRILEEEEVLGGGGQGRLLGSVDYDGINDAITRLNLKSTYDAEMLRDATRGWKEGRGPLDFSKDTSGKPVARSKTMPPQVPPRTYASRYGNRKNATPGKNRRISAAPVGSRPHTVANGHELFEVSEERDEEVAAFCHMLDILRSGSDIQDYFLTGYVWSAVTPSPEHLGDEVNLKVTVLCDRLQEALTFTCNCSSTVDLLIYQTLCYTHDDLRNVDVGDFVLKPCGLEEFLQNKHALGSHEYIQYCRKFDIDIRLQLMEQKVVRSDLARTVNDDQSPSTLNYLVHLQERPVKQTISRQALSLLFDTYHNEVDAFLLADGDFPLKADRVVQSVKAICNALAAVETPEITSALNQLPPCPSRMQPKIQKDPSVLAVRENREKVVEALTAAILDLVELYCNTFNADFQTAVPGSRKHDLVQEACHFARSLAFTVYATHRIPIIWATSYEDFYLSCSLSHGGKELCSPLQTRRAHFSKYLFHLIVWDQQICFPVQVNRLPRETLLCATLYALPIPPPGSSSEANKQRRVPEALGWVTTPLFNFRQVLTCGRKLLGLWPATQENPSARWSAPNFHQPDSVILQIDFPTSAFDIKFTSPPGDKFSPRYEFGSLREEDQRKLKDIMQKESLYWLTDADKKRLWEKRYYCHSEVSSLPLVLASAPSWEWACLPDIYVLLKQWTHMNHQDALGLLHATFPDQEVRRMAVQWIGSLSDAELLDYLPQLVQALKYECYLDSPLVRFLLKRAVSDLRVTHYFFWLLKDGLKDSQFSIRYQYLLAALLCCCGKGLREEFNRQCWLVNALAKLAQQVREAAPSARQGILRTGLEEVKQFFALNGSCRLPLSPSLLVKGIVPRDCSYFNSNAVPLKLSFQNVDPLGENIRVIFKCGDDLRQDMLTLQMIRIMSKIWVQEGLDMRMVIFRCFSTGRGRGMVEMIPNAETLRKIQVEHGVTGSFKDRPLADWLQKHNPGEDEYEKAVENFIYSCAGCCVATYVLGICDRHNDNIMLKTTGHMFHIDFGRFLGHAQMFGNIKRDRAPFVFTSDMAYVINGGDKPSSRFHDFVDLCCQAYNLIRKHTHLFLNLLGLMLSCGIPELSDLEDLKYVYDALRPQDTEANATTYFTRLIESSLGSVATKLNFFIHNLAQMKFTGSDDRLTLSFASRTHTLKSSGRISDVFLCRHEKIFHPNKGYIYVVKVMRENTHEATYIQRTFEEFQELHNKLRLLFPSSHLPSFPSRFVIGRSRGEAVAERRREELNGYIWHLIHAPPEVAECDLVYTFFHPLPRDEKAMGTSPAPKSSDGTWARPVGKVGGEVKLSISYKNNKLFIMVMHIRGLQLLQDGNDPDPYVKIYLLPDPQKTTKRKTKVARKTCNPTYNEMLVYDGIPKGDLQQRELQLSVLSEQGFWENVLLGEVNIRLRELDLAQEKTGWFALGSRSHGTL
Chain of Serine/threonine-protein kinase PAK 4 ; PAK4 ; O96013 (O96013 whole entry, one chain of several): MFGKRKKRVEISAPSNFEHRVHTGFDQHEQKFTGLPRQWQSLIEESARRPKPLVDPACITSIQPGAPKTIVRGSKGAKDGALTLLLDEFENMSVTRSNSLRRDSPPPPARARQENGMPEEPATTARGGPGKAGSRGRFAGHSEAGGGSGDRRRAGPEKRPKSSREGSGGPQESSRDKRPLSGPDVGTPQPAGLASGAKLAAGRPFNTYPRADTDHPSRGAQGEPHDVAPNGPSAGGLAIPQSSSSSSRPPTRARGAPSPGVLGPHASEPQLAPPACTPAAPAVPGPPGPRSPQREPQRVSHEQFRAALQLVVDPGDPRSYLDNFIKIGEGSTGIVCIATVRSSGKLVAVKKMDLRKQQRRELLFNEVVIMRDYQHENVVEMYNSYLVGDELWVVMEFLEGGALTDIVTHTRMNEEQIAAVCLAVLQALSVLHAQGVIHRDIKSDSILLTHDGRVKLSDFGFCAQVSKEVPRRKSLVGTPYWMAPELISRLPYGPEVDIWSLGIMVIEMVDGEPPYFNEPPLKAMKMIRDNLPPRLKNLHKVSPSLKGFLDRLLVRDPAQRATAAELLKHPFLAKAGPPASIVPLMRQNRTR
Chain of Phosphatidylinositol 4,5-bisphosphate 3-kinase catalytic subunit delta ; PIK3CD ; O00329 (O00329 whole entry, one chain of several): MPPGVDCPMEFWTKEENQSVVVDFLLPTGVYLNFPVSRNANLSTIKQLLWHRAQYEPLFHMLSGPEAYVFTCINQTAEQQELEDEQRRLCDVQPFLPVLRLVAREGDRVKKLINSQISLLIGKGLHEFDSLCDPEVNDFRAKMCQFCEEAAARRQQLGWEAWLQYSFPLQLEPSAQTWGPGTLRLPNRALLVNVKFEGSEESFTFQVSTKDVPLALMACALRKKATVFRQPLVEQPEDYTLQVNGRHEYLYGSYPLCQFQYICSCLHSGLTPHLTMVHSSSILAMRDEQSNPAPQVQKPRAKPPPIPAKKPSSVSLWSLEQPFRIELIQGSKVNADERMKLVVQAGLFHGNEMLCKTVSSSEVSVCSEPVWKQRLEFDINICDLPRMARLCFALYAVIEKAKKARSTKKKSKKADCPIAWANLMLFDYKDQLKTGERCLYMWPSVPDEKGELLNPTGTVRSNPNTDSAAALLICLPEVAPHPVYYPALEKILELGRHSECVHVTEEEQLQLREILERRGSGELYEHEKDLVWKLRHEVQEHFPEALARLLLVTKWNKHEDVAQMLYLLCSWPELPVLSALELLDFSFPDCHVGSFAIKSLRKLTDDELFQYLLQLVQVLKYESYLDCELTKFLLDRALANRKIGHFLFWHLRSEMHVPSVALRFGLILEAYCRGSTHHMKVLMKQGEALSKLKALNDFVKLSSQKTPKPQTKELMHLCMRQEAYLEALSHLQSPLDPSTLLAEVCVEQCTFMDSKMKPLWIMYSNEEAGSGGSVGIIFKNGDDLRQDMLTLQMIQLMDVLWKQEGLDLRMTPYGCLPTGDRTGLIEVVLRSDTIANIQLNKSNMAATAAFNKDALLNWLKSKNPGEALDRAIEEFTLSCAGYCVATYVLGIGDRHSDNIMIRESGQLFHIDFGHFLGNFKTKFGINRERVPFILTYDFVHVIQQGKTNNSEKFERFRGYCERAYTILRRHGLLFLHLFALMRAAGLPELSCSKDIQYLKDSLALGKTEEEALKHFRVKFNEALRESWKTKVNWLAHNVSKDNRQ
Chain of Ribosomal protein S6 kinase beta-1 ; RPS6KB1 ; P23443 (P23443 whole entry): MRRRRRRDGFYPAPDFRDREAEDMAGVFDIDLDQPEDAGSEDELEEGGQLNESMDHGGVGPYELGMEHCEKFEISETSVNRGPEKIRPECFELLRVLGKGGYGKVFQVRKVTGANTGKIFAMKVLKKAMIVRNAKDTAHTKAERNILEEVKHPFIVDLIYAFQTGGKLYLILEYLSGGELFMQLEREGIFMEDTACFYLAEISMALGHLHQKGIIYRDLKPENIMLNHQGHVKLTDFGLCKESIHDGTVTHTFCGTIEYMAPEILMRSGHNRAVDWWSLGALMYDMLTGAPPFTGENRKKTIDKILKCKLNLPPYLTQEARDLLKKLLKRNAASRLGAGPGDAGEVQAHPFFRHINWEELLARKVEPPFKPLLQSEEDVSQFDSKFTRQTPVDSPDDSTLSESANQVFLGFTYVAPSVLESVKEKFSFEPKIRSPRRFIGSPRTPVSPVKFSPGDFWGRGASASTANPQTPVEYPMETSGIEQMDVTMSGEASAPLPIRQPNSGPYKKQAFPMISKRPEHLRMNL
Chain of 5'-AMP-activated protein kinase catalytic subunit alpha-2 ; PRKAA2 ; P54646 (P54646 whole entry, one chain of several): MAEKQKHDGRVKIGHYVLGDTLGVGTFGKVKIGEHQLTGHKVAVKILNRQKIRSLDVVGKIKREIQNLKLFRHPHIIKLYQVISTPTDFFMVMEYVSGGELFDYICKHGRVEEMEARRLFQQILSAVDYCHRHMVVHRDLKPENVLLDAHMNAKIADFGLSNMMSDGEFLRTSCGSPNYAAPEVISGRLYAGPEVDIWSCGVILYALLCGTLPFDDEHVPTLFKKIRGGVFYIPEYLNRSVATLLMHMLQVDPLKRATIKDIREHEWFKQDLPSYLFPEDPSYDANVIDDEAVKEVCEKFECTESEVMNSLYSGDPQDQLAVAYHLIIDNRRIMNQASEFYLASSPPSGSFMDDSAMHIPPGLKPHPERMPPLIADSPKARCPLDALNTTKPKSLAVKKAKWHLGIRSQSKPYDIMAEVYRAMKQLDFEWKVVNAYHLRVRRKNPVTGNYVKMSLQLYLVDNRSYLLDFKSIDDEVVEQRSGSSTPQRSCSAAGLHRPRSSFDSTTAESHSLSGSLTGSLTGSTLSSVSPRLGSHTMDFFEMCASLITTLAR
Chain of Isoform 3 of Mitogen-activated protein kinase 8 ; MAPK8 ; P45983-3 (P45983 whole entry, the tested form may be a part, canonical isoform): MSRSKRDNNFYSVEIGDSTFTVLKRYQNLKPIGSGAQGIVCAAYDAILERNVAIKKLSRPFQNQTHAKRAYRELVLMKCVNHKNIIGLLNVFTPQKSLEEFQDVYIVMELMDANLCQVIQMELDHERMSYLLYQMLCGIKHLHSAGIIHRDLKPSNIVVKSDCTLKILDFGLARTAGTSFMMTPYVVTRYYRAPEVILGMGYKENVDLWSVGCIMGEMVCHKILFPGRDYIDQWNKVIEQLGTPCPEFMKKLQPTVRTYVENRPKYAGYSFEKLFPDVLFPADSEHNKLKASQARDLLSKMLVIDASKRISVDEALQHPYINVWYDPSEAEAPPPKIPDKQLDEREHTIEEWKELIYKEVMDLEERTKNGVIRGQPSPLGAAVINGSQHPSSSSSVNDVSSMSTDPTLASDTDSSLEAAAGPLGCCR

Regarding `COc1cc(F)ccc1-c1ncnc(Nc2cccc(C[S@](C)(=N)=O)c2)n1` [BAY-1143572], the remaining activity at 10 µM in assay [1] (setting [23]) is 99.1%; in assay [2] (setting [23]), 67.4%; in assay [3] (setting [23]) it was 109%; in assay [4] (setting [23]), 108%; in [5] (setting [23]), 115%; in assay [6] (setting [23]), 128%. For the same molecule, the remaining activity at 10 µM is 109% in assay [7] (setting [23]); 90.7% in [8] (setting [23]); 116% in assay [9] (setting [23]); 103% in assay [10] (setting [23]); 116% in assay [11] (setting [23]); 80% in assay [12] (setting [23]). The remaining activity at 10 µM in assay [13] (setting [23]) worked out at 141%; in assay [14] (setting [23]), 79.7%; in [15] (setting [23]), 113%; in assay [16] (setting [23]), 222%; in [17] (setting [23]), 87.2%; in assay [18] (setting [23]), 110%. Also, the remaining activity at 10 µM in assay [19] (setting [23]) is 137%; in assay [20] (setting [23]) it was 105%; in assay [21] (setting [23]), 115%; in [22] (setting [23]) it was 97.7%.

For `COc1cc(F)ccc1-c1cc(Nc2cc(CS(C)(=N)=O)ccn2)ncc1F` (centres unmarked) [BAY-1251152], the remaining activity at 10 µM worked out at 89.3% in assay [1] (setting [24]); 83.2% in assay [2] (setting [24]); 106% in assay [3] (setting [24]); 99.3% in assay [4] (setting [24]); 111% in assay [5] (setting [24]); 125% in assay [6] (setting [24]). The remaining activity at 10 µM in assay [7] (setting [24]) was 110%; in assay [8] (setting [24]), 108%; in [9] (setting [24]) it was 113%; in [10] (setting [24]) it was 91.9%; in [11] (setting [24]), 113%; in [12] (setting [24]), 74.4%. In addition, the remaining activity at 10 µM in assay [13] (setting [24]) worked out at 128%; in assay [14] (setting [24]) it was 84.6%; in [15] (setting [24]), 110%; in [16] (setting [24]) it was 222%; in assay [17] (setting [24]) it was 104%; in [18] (setting [24]) it was 107%. In addition, the remaining activity at 10 µM in assay [19] (setting [24]) amounted to 129%; in [20] (setting [24]) it was 110%; in assay [21] (setting [24]) it was 113%; in [22] (setting [24]), 53.8%.
